Read-outs that look alike come from different tables or passages of the source.
Experiments:
DAT [1] = molecular target: T1, DAT (Homo sapiens, UniProt Q01959); assay: cell-based
T1 construct: expressed in transfected cells

human NET = molecular target: T2, human NET (Homo sapiens, UniProt P23975); assay: cell-based
T2 construct: expressed in transfected cells

SERT [2] = molecular target: T3, SERT (Homo sapiens, UniProt P31645); assay: Uptake-inhibition of [3H]5-HT in HEK293 cells stably expressing human SERT; type: cell-based
T3 construct: expressed in transfected cells
T3 sequence (P31645 whole entry): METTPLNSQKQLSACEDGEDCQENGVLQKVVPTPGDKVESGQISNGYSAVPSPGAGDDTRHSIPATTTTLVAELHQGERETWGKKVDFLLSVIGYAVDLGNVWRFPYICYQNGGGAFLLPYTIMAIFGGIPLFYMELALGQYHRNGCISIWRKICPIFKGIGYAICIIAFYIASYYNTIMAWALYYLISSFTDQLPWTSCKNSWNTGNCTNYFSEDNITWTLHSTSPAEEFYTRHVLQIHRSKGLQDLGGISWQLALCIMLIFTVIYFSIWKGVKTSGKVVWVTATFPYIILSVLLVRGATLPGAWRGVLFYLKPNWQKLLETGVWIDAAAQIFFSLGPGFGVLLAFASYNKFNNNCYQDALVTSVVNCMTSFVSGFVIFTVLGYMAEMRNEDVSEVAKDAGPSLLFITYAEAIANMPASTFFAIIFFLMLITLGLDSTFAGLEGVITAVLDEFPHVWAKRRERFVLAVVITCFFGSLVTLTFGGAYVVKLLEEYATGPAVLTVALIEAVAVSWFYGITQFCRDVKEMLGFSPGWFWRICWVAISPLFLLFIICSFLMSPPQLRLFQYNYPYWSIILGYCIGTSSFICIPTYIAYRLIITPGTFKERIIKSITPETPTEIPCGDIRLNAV

SERT [3] = molecular target: T3, SERT; conditions: read-out: IC50 SERT; QSAR data matrix; unit inferred; compounds not tested in this paper, source not given, presumably ref Mayer et al., 2019; cited from earlier work
[4] = LC-MS/MS detection of mephedrone metabolites in a human urine sample; type: in vivo; parameters: key to Detected in urine samples: detected (+); not detected (−); conditions: for detection in human urine sample: achiral LC-MS/MS, after enzymatic workup; for Detected in urine samples: human urine, mephedrone user, only syn- and anti-configurations could be separated
Source text: The biological specimen, human urine, was provided by the Department of Chemical Analytics, Seibersdorf Laboratories GmbH. The sample was taken from a subject postmortem in a fatal case of drug overdose. […] Given this fact, we assumed that also the metabolites would be detectable in sufficient quantity. To evaluate the presence of any metabolites whatsoever in the urine sample we designed an achiral separation protocol for liquid chromatography and we coupled it with triple quadrupole mass spectrometer. The advantage of LC-MS/MS system is that even if two substances have the same retention time, they can still be differentiated by their fragmentation pattern. More in details, the samples for urine analysis were analyzed using a CTC HTS PAL autosampler (CTC Analytics) and a Thermo Surveyor LC system (Thermo) interfaced to a TSQ Quantum Discovery Max triple quadrupole mass spectrometer (Thermo). A C18 security guard cartridge (4 × 2 mm) (Phenomenex) was used for sample clean-up and the analytical HPLC column was a Kinetex 1.7 μm C18 100Å 150 × 2.1 mm (Phenomenex) and Cortecs T3, 2.7 μm C18 120Å 100 × 2.1 mm (Waters). Column selection was performed by a Maylab Mistraswitch column selector (Maylab Analytical Instruments). The solvents were 0.2% formic acid in water (A) and acetonitrile (B). The temperature of the analytical column was maintained at 40°C. The mass spectrometer was equipped with heated electrospray ionization (ESI) source and was operated in positive ionization mode with a spray voltage set at 4500V. The capillary temperature was adjusted to 320°C. The sheath and auxiliary gas (nitrogen) flow rate was 25 and 10 arbitrary units, respectively. The system was operated in selected […] (srm) mode with argon as the collision gas at a pressure of 1.5 mTorr. For the achiral separation, stem solutions were prepared by weighing the reference substances in volumetric flasks and filling them up with MeOH (99.9%; HPLC grade), creating average concentration of 1 mg/ml. Then dilution solutions were prepared as follows: 10 μL of stem solution was filled up to 5 ml MeOH, creating dilution […]. Samples were prepared from dilution solutions by taking out 25 μL and mixing it together with 25 μL of ISP, 50 μL ISS and filled up to 1 ml with Milli-Q water. The final sample solvent was water/MeOH 9/1. For the enzymatic workup, phosphate buffer (1 ml, 0.8M, pH = 7), β-glucuronidase/arylsulfatase (25 μL) and β-glucuronidase (25 μL) were added to the solutions. The solutions were heated at 50°C during 1 h upon which EtOAc (7 ml) was added. The solution was put into shaker for 10min, following centrifugation for 5 min. The organic phase was separated and evaporated into dryness in stream of pressurized nitrogen. The residue was taken up in 150 μL MQ-water/MeOH 9/1 + 0.4% formic acid, heated at 50°C for 5 min and subjected to LC-MS analysis.
If on one hand the synthesis of putative metabolites allows the establishment of structure activity relationships, on the other hand, it provides pure material to evaluate their presence in human urine samples and determine their pharmacological relevance. To determine the presence of any metabolites in the urine sample, we have designed an achiral separation protocol and coupled the liquid chromatography with triple quadrupole mass spectrometer (LCMS/MS). With the LCMS/MS system two substances with the same retention time, can still be differentiated by their fragmentation pattern. Since metabolites carrying a primary alcohol functionality can form glucuronide and sulfate conjugates, we performed an enzymatic workup of the urine sample in order to cleave them. Apart from the parental drug, we detected 4-OH-MMC and 4-MC (nor-meph) which we have both already identified in our previous publication ([Mayer et al., 2019]), and the two previously uncharacterized metabolites 4-COOH-MC and dihydro-4-MC (Figure 6). […]

DAT [5] = molecular target: T1, DAT; assay: Transporter electrophysiology (whole cell patch clamp), HEK293 cells stably expressing DAT; type: cell-based; conditions: compound applied at 30 µM, -60 mV
Method: (§1) Human embryonic kidney 293 cells (HEK293 cells) were cultivated in Dulbecco’s Modified Eagle Medium (DMEM), containing 10% heat-in- activated fetal calf serum (FCS), streptomycin (100 μg x 100 ml−1) and penicillin (100 U × 100 ml−1). Geneticin (50 μg x mL−1) was added to select HEK293 cells stably expressing the human isoforms of DAT, NET and SERT as described earlier ([Mayer et al., 2016a]). Cell lines were maintained in a sub-confluent state in humidified atmosphere (37°C, 5% CO2). For uptake inhibition experiments cells expressing the desired transporter were seeded the days before the experiment (40,000 cells per well) or two days before the experiments (20,000 cells per well) onto poly-D-lysine (PDL) coated 96-well plates 24 h prior to the experiment. In the case of transporter-electrophysiology cells were cultivated in 10 cm dishes and 24 h before the experiments they were detached, and seeded at low density onto PDL-coated 3 cm dishes.
(§2) Transporter electrophysiology was conducted by the means of whole cell patch clamp in HEK293 cells stably expressing DAT or SERT. Substrate-induced currents were recorded under voltage clamp (−60 mV). Cells were continuously superfused with a physiological external solution that contains 140 mM NaCl, 2.5 mM CaCl2, 2 mM MgCl2, 20 mM glucose and 10 mM HEPES, pH = 7.4. The pipette solution contained 133 mM potassium gluconate, 6 mM NaCl, 1 mM CaCl2, 0.7 mM MgCl2, 10 mM HEPES, 10 mM EGTA, pH = 7.2. Currents elicited by mephedrone 30 μM, were measured at room temperature (20–24°C) using an […] amplifier and pClamp 11.2 software (MDS Analytical Technologies). All the solutions perfused onto the cell were applied using a DAD-12 superfusion system and a 8-tube perfusion manifold (ALA Scientific Instruments), which allowed for rapid solution exchange. Current traces were filtered at 1 kHz and digitized at 10 kHz using a Digidata 1,550 (MDS Analytical Technologies). […] For the analysis, passive holding currents were subtracted, and the traces were filtered using a 100-Hz digital Gaussian low-pass filter.

SERT [6] = molecular target: T3, SERT; assay: Transporter electrophysiology (whole cell patch clamp), HEK293 cells stably expressing SERT; type: cell-based; conditions: compound applied at 30 µM, -60 mV
Method: as §1, §2

[7] = QSAR data matrix, from IC50 DAT, read-out: pIC50 DAT (converted)
[8] = mean (95% confidence interval), non-linear regression, read-out: IC50 (µM) DAT
[9] = mean (95% confidence interval), non-linear regression, read-out: IC50 (µM) NET
[10] = IC50 (µM) SERT, mean (95% confidence interval), non-linear regression
[11] = IC50 SERT, QSAR data matrix, unit inferred
[12] = in Figure 3, read-out: IC50(SERT)
[13] = mean (95% confidence interval), non-linear regression, read-out: IC50 (µM) SERT
[14] = QSAR data matrix, unit inferred, read-out: IC50 SERT

T1 sequence (Q01959 whole entry): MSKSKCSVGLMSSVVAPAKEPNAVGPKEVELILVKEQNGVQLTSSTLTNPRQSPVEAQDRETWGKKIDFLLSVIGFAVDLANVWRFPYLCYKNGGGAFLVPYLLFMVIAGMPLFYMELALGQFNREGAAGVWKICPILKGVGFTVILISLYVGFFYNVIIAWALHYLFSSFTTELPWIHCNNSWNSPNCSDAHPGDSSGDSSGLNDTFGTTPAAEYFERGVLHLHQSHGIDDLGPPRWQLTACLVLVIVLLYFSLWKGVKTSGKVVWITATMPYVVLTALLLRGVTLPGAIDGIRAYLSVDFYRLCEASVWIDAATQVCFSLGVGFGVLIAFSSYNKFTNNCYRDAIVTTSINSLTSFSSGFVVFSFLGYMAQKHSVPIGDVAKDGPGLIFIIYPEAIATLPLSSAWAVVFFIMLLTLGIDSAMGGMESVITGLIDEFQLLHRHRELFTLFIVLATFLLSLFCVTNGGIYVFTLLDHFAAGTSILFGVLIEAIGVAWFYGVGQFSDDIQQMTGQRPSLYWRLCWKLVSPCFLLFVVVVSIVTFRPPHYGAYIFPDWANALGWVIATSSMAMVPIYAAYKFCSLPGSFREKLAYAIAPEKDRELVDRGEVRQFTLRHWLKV
T2 sequence (P23975 whole entry): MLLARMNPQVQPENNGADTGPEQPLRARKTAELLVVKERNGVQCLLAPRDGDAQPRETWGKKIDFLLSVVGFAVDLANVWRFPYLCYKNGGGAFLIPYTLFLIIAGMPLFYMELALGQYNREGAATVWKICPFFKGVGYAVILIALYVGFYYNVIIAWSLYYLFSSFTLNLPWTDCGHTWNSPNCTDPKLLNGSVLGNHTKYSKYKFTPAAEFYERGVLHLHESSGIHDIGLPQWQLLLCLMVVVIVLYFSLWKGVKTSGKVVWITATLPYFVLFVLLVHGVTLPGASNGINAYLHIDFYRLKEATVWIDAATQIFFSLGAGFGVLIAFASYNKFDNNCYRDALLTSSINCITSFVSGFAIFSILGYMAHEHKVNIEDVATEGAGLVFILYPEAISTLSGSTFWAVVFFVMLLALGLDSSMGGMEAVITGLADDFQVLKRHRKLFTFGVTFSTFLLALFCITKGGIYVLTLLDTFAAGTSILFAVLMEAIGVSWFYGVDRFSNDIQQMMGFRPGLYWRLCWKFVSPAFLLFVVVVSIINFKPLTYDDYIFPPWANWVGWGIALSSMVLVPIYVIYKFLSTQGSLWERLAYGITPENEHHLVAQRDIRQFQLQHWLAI

SMILES	IC50 (DAT [1]; [7])	Selectivity ratio DAT/SERT (DAT [1])	IC50 (DAT [1]; [8])	Selectivity ratio NET/DAT (human NET)	IC50 (human NET; [9])	SERT-mediated current (SERT [6])	Detected in urine samples [4]	IC50 (SERT [2]; [13])	DAT-mediated current (DAT [5])	further results
CN[C@H](C)C(=O)c1ccc(C)cc1 [2R-MMC, R-mephedrone, reference compound]	0.776 µM									IC50 (human NET): 2.75 µM; IC50 (SERT [2]; pIC50 SERT, QSAR data matrix, from IC50 SERT): 74.1 µM; IC50 (SERT [3]): 74.8 µM
CNC(C)C(=O)c1ccc(CO)cc1.Cl (stereo not drawn) [4-OH-MMC, 4-OH-mephedrone, reference compound]										detection in human urine sample [4]: detected
Cc1ccc([C@@H](O)[C@@H](C)N)cc1 [Dihydro-(R,R)-4-MC]	8.13 µM	9.26	8.05 µM	0.44	18.1 µM	elicited only SERT-mediated currents	+			IC50 (SERT [2]; [10]): 74.6 µM; IC50 (SERT [2]; [11]): 74.6 µM; DAT-mediated current (DAT [5]; listed as dihydro-(R,R)-4-MC): absence of DAT-mediated current; DAT-mediated current (DAT [5]; listed as dihydro-(R,R)-4 MC): elicited only SERT-mediated currents
C[C@@H](N)[C@H](O)c1ccc(CO)cc1 [Dihydro-(R,R)-4-OH-MC]	28.2 µM	48.42	28.3 µM	0.61	46.5 µM	did not elicit any DAT or SERT-mediated current	−	1370 µM	did not elicit any DAT or SERT-mediated current	IC50 (SERT [2]; [12]): 1400 µM
CN[C@H](C)[C@H](O)c1ccc(CO)cc1 [Dihydro-(R,R)-4-OH-MMC]	25.7 µM	67.72	25.6 µM	0.69	37 µM	did not elicit any DAT or SERT-mediated current	−	1740 µM	did not elicit any DAT or SERT-mediated current	IC50 (SERT [2]; [12]): 1700 µM
Cc1ccc([C@@H](O)[C@H](C)N)cc1 [Dihydro-(R,S)-4-MC]	13.5 µM	4.94	13.5 µM	0.42	32.4 µM	elicited only SERT-mediated currents	+		elicited only SERT-mediated currents	IC50 (SERT [2]; [10]): 66.9 µM; IC50 (SERT [2]; [11]): 66.9 µM
C[C@H](N)[C@H](O)c1ccc(CO)cc1 [Dihydro-(R,S)-4-OH-MC]	100 µM	3.86	99.1 µM	1.60	62 µM		−	383 µM		IC50 (SERT [2]; [14]): 383 µM
CN[C@@H](C)[C@H](O)c1ccc(CO)cc1 [Dihydro-(R,S)-4-OH-MMC]	85.1 µM	5.87	84.5 µM	1.57	53.9 µM		−	496 µM		IC50 (SERT [2]; [14]): 496 µM
Cc1ccc([C@H](O)[C@@H](C)N)cc1 [Dihydro-(S,R)-4-MC]	15.5 µM	11.53	15.5 µM	0.37	41.8 µM		+		absence of DAT-mediated current	IC50 (SERT [2]; [10]): 178 µM; IC50 (SERT [2]; [11]): 178 µM
C[C@@H](N)[C@@H](O)c1ccc(CO)cc1 [Dihydro-(S,R)-4-OH-MC]	91.2 µM	12.68	91.2 µM	1.09	83.4 µM		−	1160 µM		
CN[C@H](C)[C@@H](O)c1ccc(CO)cc1 [Dihydro-(S,R)-4-OH-MMC]	77.6 µM	40.99	77 µM	1.55			−	3160 µM		IC50 (human NET; QSAR data matrix, from IC50 NET, read-out: pIC50 NET (converted)): 50.1 µM
Cc1ccc([C@H](O)[C@H](C)N)cc1 [Dihydro-(S,S)-4-MC]	22.4 µM	1.42	22.6 µM	2.37	9.51 µM	elicited only SERT-mediated currents	+		elicited only SERT-mediated currents	IC50 (SERT [2]; [10]): 32.2 µM; IC50 (SERT [2]; [11]): 32.2 µM
C[C@H](N)[C@@H](O)c1ccc(CO)cc1 [Dihydro-(S,S)-4-OH-MC]	58.9 µM	9.92	59.2 µM	4.71	12.6 µM		−	588 µM		
CN[C@@H](C)[C@@H](O)c1ccc(CO)cc1 [Dihydro-(S,S)-4-OH-MMC]	162 µM	11.49	161 µM	0.55	291 µM		−	1850 µM		
Cc1ccc(C(O)C(C)N)cc1 (stereo not drawn) [dihydro-4-MC, dihydro-4-nor-mephedrone]										detection in human urine sample [4]: detected
CNC(C)C(O)c1ccc(CO)cc1 (stereo not drawn) [dihydro-4-OH-MMC]										detection in human urine sample [4]: not found

Source: article PMC8063026 (Frontiers in Pharmacology, 2021)
